Biological target: HDM2 protein (Homo sapiens, UniProt Q00987)
Assay: fluorescence polarization screening assay (FP IC50)
Assay type: binding
Details: class symbols
Description: The compounds were evaluated to determine activity at the HDM2 protein by known methods such as the fluorescence polarization screening assay that measures the inhibitory concentration that achieves 50% of maximal activity (FP IC50) and the dissociation constant for inhibitor binding (FP Ki). [Zhang et al., J. Analytical Biochemistry 331: 138-146 (2004)].

HDM2 protein, sequence (Q00987 whole entry): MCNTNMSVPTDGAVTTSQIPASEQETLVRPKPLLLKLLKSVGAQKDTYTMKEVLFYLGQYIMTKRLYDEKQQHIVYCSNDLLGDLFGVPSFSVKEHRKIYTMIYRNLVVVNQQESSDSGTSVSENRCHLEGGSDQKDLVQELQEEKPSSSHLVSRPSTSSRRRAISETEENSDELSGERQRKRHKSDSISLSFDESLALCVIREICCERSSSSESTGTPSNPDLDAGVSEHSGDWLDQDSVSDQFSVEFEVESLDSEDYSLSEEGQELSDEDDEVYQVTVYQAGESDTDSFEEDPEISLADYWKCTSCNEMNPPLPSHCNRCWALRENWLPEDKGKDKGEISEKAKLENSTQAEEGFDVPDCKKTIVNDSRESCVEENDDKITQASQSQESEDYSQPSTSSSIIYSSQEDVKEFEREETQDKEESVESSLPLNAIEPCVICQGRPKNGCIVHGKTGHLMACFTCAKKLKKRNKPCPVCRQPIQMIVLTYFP

IC50 [nM]	Structure (SMILES)
101 to 20000	CCC[C@H]1N(C(=O)c2ncccc2C(F)(F)F)CCC[C@@]1(Oc1csc(C(F)(F)F)c1)C(=O)N1CCc2cc(Cl)ccc2C1CC(C(=O)O)C(C)C (stereo partly drawn) [Compound A177, 2-[(6-chloro-2-{[(2R,3S)-2-propyl-1-{[3-(trifluoromethyl)pyridin-2-yl]carbonyl}-3-{[5-(trifluoromethyl)thiophen-3-yl]oxy}piperidin-3-yl]carbonyl}-1,2,3,4-tetrahydroisoquinolin-1-yl)methyl]-3-methylbutanoic acid]
1 to 100	CCC[C@H]1N(C(=O)c2ncccc2C(F)(F)F)CCC[C@@]1(Oc1csc(C(F)(F)F)c1)C(=O)N1CCc2cc(Cl)ccc2C1CCC(=O)NS(C)(=O)=O (stereo partly drawn) [Compound A61, 3-(6-chloro-2-{[(2R,3S)-2-propyl-1-{[3-(trifluoromethyl)pyridin-2-yl]carbonyl}-3-{[5-(trifluoromethyl)thiophen-3-yl]oxy}piperidin-3-yl]carbonyl}-1,2,3,4-tetrahydroisoquinolin-1-yl)-N-(methylsulfonyl) propanamide]
1 to 100	CCC[C@H]1N(C(=O)c2ncccc2C(F)(F)F)CCC[C@@]1(Oc1csc(C(F)(F)F)c1)C(=O)N1Cc2ccc(Cl)cc2C[C@@H]1CCC(=O)O [Compound A130, 3-[(3S)-6-chloro-2-{[(2R,3S)-2-propyl-1-{[3-(trifluoromethyl)pyridin-2-yl]carbonyl}-3-{[5-(trifluoromethyl)thiophen-3-yl]oxy}piperidin-3-yl]carbonyl}-1,2,3,4-tetrahydroisoquinolin-3-yl]propanoic acid]
1 to 100	CCC[C@H]1N(C(=O)c2ncccc2C(F)(F)F)CCC[C@@]1(Oc1csc(C(F)(F)F)c1)C(=O)N1Cc2ccc(Cl)cc2C[C@@H]1C(=O)O [Compound A129, (3R)-6-chloro-2-{[(2R,3S)-2-propyl-1-{[3-(trifluoromethyl)pyridin-2-yl]carbonyl}-3-{[5-(trifluoromethyl)thiophen-3-yl]oxy}piperidin-3-yl]carbonyl}-1,2,3,4-tetrahydroisoquinoline-3-carboxylic acid]
1 to 100	CCC[C@H]1N(C(=O)c2ncccc2C(F)(F)F)CCC[C@@]1(Oc1csc(C(F)(F)F)c1)C(=O)N1Cc2ccc(Cl)cc2C[C@@H]1C(C)CC(=O)O (stereo partly drawn) [Compound A133, 3-[(3R)-6-chloro-2-{[(2R,3S)-2-propyl-1-{[3-(trifluoromethyl)pyridin-2-yl]carbonyl}-3-{[5-(trifluoromethyl)thiophen-3-yl]oxy}piperidin-3-yl]carbonyl}-1,2,3,4-tetrahydroisoquinolin-3-yl]butanoic acid]
1 to 100	CCC[C@H]1N(C(=O)c2ncccc2C(F)(F)F)CCC[C@@]1(Oc1csc(C(F)(F)F)c1)C(=O)N1CCc2cc(F)ccc2C1CC(=O)O (stereo partly drawn) [Compound A52, (6-fluoro-2-{[(2R,3S)-2-propyl-1-{[3-(trifluoromethyl)pyridin-2-yl]carbonyl}-3-{[5-(trifluoromethyl)thiophen-3-yl]oxy}piperidin-3-yl]carbonyl}-1,2,3,4-. tetrahydroisoquinolin-1-yl)acetic acid]
101 to 20000	CCCC1N(C(=O)c2ncccc2C(F)(F)F)CCCC1(Oc1ccc(OC(F)(F)F)cc1)C(=O)N1CCc2cc(F)ccc2C1 (stereo not drawn) [Compound A110, 6-fluoro-2-[(2-propyl-3-[4-(trifluoromethoxy)phenoxy]-1-{[3-(trifluoromethyl)pyridin-2-yl]carbonyl}piperidin-3-yl)carbonyl]-1,2,3,4-tetrahydroisoquinoline]
1 to 100	CCC[C@H]1N(C(=O)c2ncccc2C(F)(F)F)CCC[C@@]1(Oc1csc(C(F)(F)F)c1)C(=O)N1Cc2ccc(F)cc2C[C@@H]1CCC(=O)O [Compound A124, 3-[(3S)-6-fluoro-2-{[(2R,3S)-2-propyl-1-{[3-(trifluoromethyl)pyridin-2-yl]carbonyl}-3-{[5-(trifluoromethyl)thiophen-3-yl]oxy}piperidin-3-yl]carbonyl}-1,2,3,4-tetrahydroisoquinolin-3-yl]propanoic acid]

The next lines start with the molecule.

Structure (SMILES)	IC50 [nM]
CCC[C@H]1N(C(=O)c2ncccc2C(F)(F)F)CCC[C@@]1(Oc1csc(C(F)(F)F)c1)C(=O)N1CCc2cc(F)ccc2C1CCCO (stereo partly drawn) [Compound A51, 3-(6-fluoro-2-{[(2R,3S)-2-propyl-1-{[3-(trifluoromethyl)pyridin-2-yl]carbonyl}-3-{[5-(trifluoromethyl)thiophen-3-yl]oxy}piperidin-3-yl]carbonyl}-1,2,3,4-tetrahydroisoquinolin-1-yl)propan-1-ol]	1 to 100
CCC[C@H]1N(C(=O)c2ncccc2C(F)(F)F)CCC[C@@]1(Oc1csc(C(F)(F)F)c1)C(=O)N1CCc2cc(Cl)ccc2C1CC(=O)O (stereo partly drawn) [Compound A53, (6-chloro-2-{[(2R,3S)-2-propyl-1-{[3-(trifluoromethyl)pyridin-2-yl]carbonyl}-3-{[5-(trifluoromethyl)thiophen-3-yl]oxy}piperidin-3-yl]carbonyl}-1,2,3,4-. tetrahydroisoquinolin-1-yl)acetic acid]	1 to 100
CCC[C@H]1N(C(=O)c2ncccc2C(F)(F)F)CCC[C@@]1(Oc1csc(C(F)(F)F)c1)C(=O)N1CCc2cc(Cl)ccc2C1 [Compound A49, 6-chloro-2-{[(2R,3S)-2-propyl-1-{[3-(trifluoromethyl)pyridin-2-yl]carbonyl}-3-{[5-(trifluoromethyl)thiophen-3-yl]oxy}piperidin-3-yl]carbonyl}-1,2,3,4-tetrahydroisoquinoline]	1 to 100
CCC[C@H]1N(C(=O)c2ncccc2C(F)(F)F)CCC[C@@]1(Oc1csc(C(F)(F)F)c1)C(=O)N1CCc2cc(F)ccc2C1CCCCC(=O)O (stereo partly drawn) [Compound A43, 5-(6-fluoro-2-{[(2R,3S)-2-propyl-1-{[3-(trifluoromethyl)pyridin-2-yl]carbonyl}-3-{[5-(trifluoromethyl)thiophen-3-yl]oxy}piperidin-3-yl]carbonyl}-1,2,3,4-tetrahydroisoquinolin-1-yl)pentanoic acid]	1 to 100
CCC[C@H]1N(C(=O)c2ncccc2C(F)(F)F)CCC[C@@]1(Oc1csc(C(F)(F)F)c1)C(=O)N1CCc2cc(Cl)ccc2C1CO (stereo partly drawn) [Compound A103, (6-chloro-2-{[(2R,3S)-2-propyl-1-{[3-(trifluoromethyl)pyridin-2-yl]carbonyl}-3-{[5-(trifluoromethyl)thiophen-3-yl]oxy}piperidin-3-yl]carbonyl}-1,2,3,4-tetrahydroisoquinolin-1-yl)methanol]	101 to 20000
CCC[C@H]1N(C(=O)c2ncccc2C(F)(F)F)CCC[C@@]1(Oc1csc(C(F)(F)F)c1)C(=O)N1CCc2cc(F)ccc2C1CCCCC(=O)O (stereo partly drawn) [Compound A40, 5-(6-fluoro-2-{[(2R,3S)-2-propyl-1-{[3-(trifluoromethyl)pyridin-2-yl]carbonyl}-3-{[5-(trifluoromethyl)thiophen-3-yl]oxy}piperidin-3-yl]carbonyl}-1,2,3,4-tetrahydroisoquinolin-1-yl)pentanoic acid]	1 to 100
CCC[C@H]1N(C(=O)c2ncccc2C(F)(F)F)CCC[C@@]1(Oc1csc(C(F)(F)F)c1)C(=O)N1Cc2ccc(F)cc2C[C@@H]1C(=O)N1CCC(O)CC1 [Compound A149, 1-{[(3R)-6-fluoro-2-{[(2R,3S)-2-propyl-1-{[3-(trifluoromethyl)pyridin-2-yl]carbonyl}-3-{[5-(trifluoromethyl)thiophen-3-yl]oxy}piperidin-3-yl]carbonyl}-1,2,3,4-tetrahydroisoquinolin-3-yl]carbonyl}piperidin-4-ol]	1 to 100
CCC[C@H]1N(C(=O)c2ncccc2C(F)(F)F)CCC[C@@]1(Oc1csc(C(F)(F)F)c1)C(=O)N1CCc2cc(Cl)ccc2C1COC (stereo partly drawn) [Compound A107, 6-chloro-1-(methoxymethyl)-2-{[(2R,3S)-2-propyl-1-{[3-(trifluoromethyl)pyridin-2-yl]carbonyl}-3-{[5-(trifluoromethyl)thiophen-3-yl]oxy}piperidin-3-yl]carbonyl}-1,2,3,4-tetrahydroisoquinoline]	101 to 20000
CCC[C@H]1N(C(=O)c2ncccc2C(F)(F)F)CCC[C@@]1(Oc1csc(C(F)(F)F)c1)C(=O)N1CCc2cc(Cl)ccc2C1CC(C)C (stereo partly drawn) [Compound A176, 6-chloro-1-(2-methylpropyl)-2-{[(2R,3S)-2-propyl-1-{[3-(trifluoromethyl)pyridin-2-yl]carbonyl}-3-{[5-(trifluoromethyl)thiophen-3-yl]oxy}piperidin-3-yl]carbonyl}-1,2,3,4-tetrahydroisoquinoline]	101 to 20000
CCC[C@H]1N(C(=O)c2ncccc2C(F)(F)F)CCC[C@@]1(Oc1csc(C(F)(F)F)c1)C(=O)N1CCc2ccc(F)cc2C1 [Compound A138, 7-fluoro-2-{[(2R,3S)-2-propyl-1-{[3-(trifluoromethyl)pyridin-2-yl]carbonyl}-3-{[5-(trifluoromethyl)thiophen-3-yl]oxy}piperidin-3-yl]carbonyl}-1,2,3,4-tetrahydroisoquinoline]	101 to 20000
O=C(c1cnccc1C(F)(F)F)N1CCC[C@@](Oc2csc(C(F)(F)F)c2)(C(=O)N2CCc3cc(Cl)ccc3C2)[C@H]1CCN1CCOCC1 [Compound A4, 6-chloro-2-{[(2R,3S)-2-(2-morpholin-4-ylethyl)-1-{[4-(trifluoromethyl)pyridin-3-yl]carbonyl}-3-{[5-(trifluoromethyl)thiophen-3-yl]oxy}piperidin-3-yl]carbonyl}-1,2,3,4-tetrahydroisoquinoline]	1 to 100
CCC[C@H]1N(C(=O)c2ncccc2C(F)(F)F)CCC[C@@]1(Oc1csc(C(F)(F)F)c1)C(=O)N1CCc2cc(SC)ccc2C1 [Compound A88, 6-(methylsulfanyl)-2-{[(2R,3S)-2-propyl-1-{[3-(trifluoromethyl)pyridin-2-yl]carbonyl}-3-{[5-(trifluoromethyl)thiophen-3-yl]oxy}piperidin-3-yl]carbonyl}-1,2,3,4-tetrahydroisoquinoline]	101 to 20000
COCC1c2ccc(Cl)cc2CCN1C(=O)[C@]1(Oc2csc(C(F)(F)F)c2)CCCN(C(=O)c2ncccc2C(F)(F)F)[C@@H]1CCN1CCOCC1 (stereo partly drawn) [Compound A17, 6-chloro-1-(methoxymethyl)-2-{[(2R,3S)-2-(2-morpholin-4-ylethyl)-1-{[3-(trifluoromethyl)pyridin-2-yl]carbonyl}-3-{[5-(trifluoromethyl)thiophen-3-yl]oxy}piperidin-3-yl]carbonyl}-1,2,3,4-tetrahydroisoquinoline]	1 to 100

— patent publication US9062071B2, “Substituted piperidines as HDM2 inhibitors” (Merck Sharp & Dohme Corp, priority 2011, dated 2015)
